The subject of one data set is VSVΔ51-induced genes. The format is cell-based, mouse.
A further data set concerns B16 melanoma cells. As to the kind of experiment: Cell cycle analysis in B16 melanoma cells (propidium iodine, flow cytometry). The settings on record: over 48 hours. The format is cell-based, mouse. In general terms: A flow cytometer gives signals particle by particle.
Data set [1] concerns IFN mediated antiviral state in U251 cells. The format is cell-based, human.
Data set [2] relates to VSVΔ51. The format is cell-based, Vesicular stomatitis virus.
In a further data set the test system is 4T1 cells. The format is cell-based, mouse. Conditions: 48 h.
Data set [3] relates to VSVΔ51. The format is cell-based, Vesicular stomatitis virus. The settings on record: 40 h.
The next data set deals with CT26 cells. The format is cell-based, mouse. Conditions: 48 h.
Data set [4] concerns oncolytic vaccinia virus (VVdd). The format is cell-based. Conditions: 20 μM; 72 h.
Another data set has as its system ISRE-luciferase reporter. The format is cell-based, human.
Another data set deals with wild type VSV. The format is cell-based, Vesicular stomatitis virus.
Data set [5] concerns VSVΔ51. The format is cell-based, Vesicular stomatitis virus. The source holds these as a separate data set.
The test system of data set [6] is VSVΔ51. The format is cell-based, Vesicular stomatitis virus. The source holds these as a separate data set.
Data set [7] deals with VSVΔ51. The format is cell-based, Vesicular stomatitis virus. This is another data set of the same source.
For data set [8], the system named is IFN responsive U251 cells. The format is cell-based, human.
Data set [9] concerns VSVΔ51. The format is cell-based, Vesicular stomatitis virus. This is another data set of the same source.
The subject of the next data set is wild type VSV (wtVSV). The format is cell-based, Vesicular stomatitis virus.
Data set [10] concerns VSVΔ51. The format is cell-based, Vesicular stomatitis virus. Conditions: 48 hours.
For data set [11], the system named is VSVΔ51. The format is cell-based, Vesicular stomatitis virus. The source holds these as a separate data set.
Where [12] appears, read: 4 h pre-treatment, with and without VSVΔ51.

“Also recorded” adds a separate entry of the source. Like-named read-outs stand apart in the source and are kept apart here.

As to `CCCSc1ccc2nc(NC(=O)OC)[nH]c2c1` [Albendazole], in the data set with 4T1 and CT26 cells (setting [12]), the “VSV-induced cytotoxicity (VSV/CTRL kill ratio)” value is “enhance VSV-induced cytotoxicity”.

`COC(=O)Nc1nc2ccc(C(=O)c3cccs3)cc2[nH]1` [Nocodazole]: the “VSV-induced cytotoxicity (VSV/CTRL kill ratio)” value in the data set with 4T1 and CT26 cells (setting [12]) is “enhance VSV-induced cytotoxicity”.

For the compound `O=C(CCCCCCC(=O)Nc1ccccc1)NO` [SAHA, reference compound], in the data set on VSVΔ51-induced genes, the “share of VSVΔ51-induced cellular genes whose induction is reduced” value was found to be 79%.

For `CC(/C=C/C(=O)NO)=C\[C@@H](C)C(=O)c1ccc(N(C)C)cc1` [TSA, reference compound], the cell cycle distribution entry with B16 melanoma cells is reported as “blocks the cell cycle in G1”.

As for `O=C1OC(c2ccccc2)C(Cl)=C1Cl` (stereo not shown) [VSe1, 3,4-dichloro-5-phenyl-2,5-dihydrofuran-2-one], the “sensitivity of IFN-protected cells to VSVΔ51” value in data set [1] was “partially re-sensitized to VSVΔ51; also recorded: can overcome pre-existing IFN mediated antiviral state”. Besides, in the data set on VSVΔ51 [2], the “increase in viral titer” value is reported as 1000 fold. Also, the “cell killing in combination with VSVΔ51 (combination index)” value in the data set with 4T1 cells and in the data set on CT26 cells was “synergistic cell killing” each time. Moreover, the “interferon protection from VSVΔ51 infection” value in the data set on VSVΔ51 [3] is on record as “partially overcome”. The “VVdd spread and viral output” value in [4] is “able to enhance the spread and replication; also recorded: enhanced spread and viral output; also recorded: enhances spread”. In the data set on B16 melanoma cells (listed as DCPDF), the cell cycle distribution entry is “cells ultimately accumulate in G1; also recorded: block in G1”. In addition, the “interferon dependent transcription (luciferase)” value in the data set with ISRE-luciferase reporter is given as “blunted”. Moreover, in the data set with wild type VSV, the “growth of VSV with a wild type M gene” value is “minimal ability to enhance the growth”. Moreover, the “share of VSVΔ51-induced cellular genes whose induction is reduced” value with VSVΔ51-induced genes is listed as “over 96%”. Moreover, the “differential in replication between normal and cancerous tissues” value with VSVΔ51 [5] is “roughly 1000 fold”. Also, the “growth of VSVΔ51 in tumour tissue” value in the data set on VSVΔ51 [5] is listed as “over 100 fold”. Further, the “VSVΔ51-GFP growth and spread (green fluorescence)” value in the data set on VSVΔ51 [5] (40 μM) is on record as “significantly enhanced”. Moreover, in the data set on VSVΔ51 [6], the “replication of VSVΔ51 in normal tissues” value is listed as “did not increase the replication”.

Regarding `CCC1=C[C@@H]2CN(C1)Cc1c([nH]c3ccccc13)[C@@](C(=O)OC)(c1cc3c(cc1OC)N(C)[C@H]1[C@@](O)(C(=O)OC)[C@H](OC(C)=O)[C@]4(CC)C=CCN5CC[C@]31[C@@H]54)C2` [Vinorelbine base, Vinorelbine Base], the “VSV-induced cytotoxicity (VSV/CTRL kill ratio)” value in the data set on 4T1 and CT26 cells (setting [12]) is recorded as “enhance VSV-induced cytotoxicity”.

Turning to `COc1cc2c(c(OC)c1OC)-c1ccc(OC)c(=O)cc1[C@@H](NC(C)=O)CC2` [colchicine], in the data set with VSVΔ51 [7], the VSVΔ51 spread result is listed as “enhanced spread of VSVΔ51”. Also, in data set [8], the VSV oncolysis result is reported as “enhanced VSV oncolysis” and the “ability to overcome IFN-induced antiviral effects” value was “could not overcome IFN-induced antiviral effects”. Also, the “enhancement of VSVΔ51 spread” value in the data set with VSVΔ51 [9] is “not observed in normal MRC-5 cells”. In addition, the “number of GFP positive cells with wtVSV” value in the data set on wild type VSV (wtVSV) is “appeared to decrease the number of GFP positive cells”. Further, the “lowest dose with strong enhancement of VSVΔ51 (GFP) spread” value in the data set with VSVΔ51 [10] is 80 nM. The “VSV-induced cytotoxicity (VSV/CTRL kill ratio)” value with 4T1 and CT26 cells is “enhance VSV-induced cytotoxicity”. For the same compound, the “enhancement of virus production (maximum)” value in the data set with VSVΔ51 [11] is recorded as about 1000 fold.

In the case of Parbendazole, the “VSV-induced cytotoxicity (VSV/CTRL kill ratio)” value in the data set with 4T1 and CT26 cells (setting [12]) is “enhance VSV-induced cytotoxicity”.

These data come from US8940291B2 (priority 2009, dated 2015).
